Reference: patent EP0726261A1, “Herbidical 1,2,4 thiadiazoles” (American Cyanamid Company, priority 1995, dated 1996)

Legend:
Format in all cases: in vivo
Hordeum vulgare [1] = experiment: Preemergence herbicidal activity (Example 67); conditions: pre, 800 g/ha
Method in brief: (§1)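 Soil surface of seeded cups sprayed with compound (800g/ha, 400 L/ha volume) from acetone/0.5% TRITON X-155 solutions diluted in water. Herbicidal effect scored on a rating scale roughly 1-3 weeks later, plants held in greenhouse.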

Alopecurus myosuroides [2] = experiment: Preemergence herbicidal activity (Example 67); conditions: pre, 800 g/ha
Method in brief: as §1

Setaria viridis [3] = experiment: Preemergence herbicidal activity (Example 67); conditions: pre, 800 g/ha
Method in brief: as §1

Galium aparine [4] = experiment: Preemergence herbicidal activity (Example 67); conditions: pre, 800 g/ha
Method in brief: as §1

Chenopodium album [5] = experiment: Preemergence herbicidal activity (Example 67); conditions: pre, 800 g/ha
Method in brief: as §1

Veronica persica [6] = experiment: Preemergence herbicidal activity (Example 67); conditions: pre, 800 g/ha
Method in brief: as §1

Helianthus annuus [7] = experiment: Preemergence herbicidal activity (Example 67); conditions: pre, 800 g/ha
Method in brief: as §1

Amaranthus retroflexus [8] = experiment: Preemergence herbicidal activity (Example 67); conditions: pre, 800 g/ha
Method in brief: as §1

Zea mays [9] = experiment: Preemergence herbicidal activity (Example 67); conditions: pre, 800 g/ha
Method in brief: as §1

Ipomoea hederacea [10] = experiment: Preemergence herbicidal activity (Example 67); conditions: pre, 800 g/ha
Method in brief: as §1

Abutilon theophrasti [11] = experiment: Preemergence herbicidal activity (Example 67); conditions: pre, 800 g/ha
Method in brief: as §1

Triticum aestivum [12] = experiment: Preemergence herbicidal activity (Example 67); conditions: pre, 800 g/ha
Method in brief: as §1

Galium aparine [13] = experiment: Postemergence herbicidal activity (Example 67); conditions: pos, 800 g/ha
Method in brief: (§2)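 Rating followed 10–21 days of greenhouse growth after treatment. Treatment was a single spray at a dose of 800 g/ha (400 L/ha spray volume) applied to plants 3–6 weeks old, using a water-diluted acetone solution containing 0.5% Triton X-155.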

Setaria viridis [14] = experiment: Postemergence herbicidal activity (Example 67); conditions: pos, 800 g/ha
Method in brief: as §2

Chenopodium album [15] = experiment: Postemergence herbicidal activity (Example 67); conditions: pos, 800 g/ha
Method in brief: as §2

Veronica persica [16] = experiment: Postemergence herbicidal activity (Example 67); conditions: pos, 800 g/ha
Method in brief: as §2

Helianthus annuus [17] = experiment: Postemergence herbicidal activity (Example 67); conditions: pos, 800 g/ha
Method in brief: as §2

Alopecurus myosuroides [18] = experiment: Postemergence herbicidal activity (Example 67); conditions: pos, 800 g/ha
Method in brief: as §2

Amaranthus retroflexus [19] = experiment: Postemergence herbicidal activity (Example 67); conditions: pos, 800 g/ha
Method in brief: as §2

Triticum aestivum [20] = experiment: Postemergence herbicidal activity (Example 67); conditions: pos, 800 g/ha
Method in brief: as §2

Hordeum vulgare [21] = experiment: Postemergence herbicidal activity (Example 67); conditions: pos, 800 g/ha
Method in brief: as §2

Zea mays [22] = experiment: Postemergence herbicidal activity (Example 67); conditions: pos, 800 g/ha
Method in brief: as §2

Ipomoea hederacea [23] = experiment: Postemergence herbicidal activity (Example 67); conditions: pos, 800 g/ha
Method in brief: as §2

Abutilon theophrasti [24] = experiment: Postemergence herbicidal activity (Example 67); conditions: pos, 800 g/ha
Method in brief: as §2

Row | SMILES | HOR VW rating (Hordeum vulgare [1]) | ALO MY rating (Alopecurus myosuroides [2]) | SET VI rating (Setaria viridis [3]) | GAL AP rating (Galium aparine [4]) | CHE AL rating (Chenopodium album [5]) | VER PE rating (Veronica persica [6]) | HEL AN rating (Helianthus annuus [7]) | AMA RE rating (Amaranthus retroflexus [8]) | ZEA MX rating (Zea mays [9]) | IPO HE rating (Ipomoea hederacea [10]) | ABU TH rating (Abutilon theophrasti [11]) | TRZ AW rating (Triticum aestivum [12]) | GAL AP rating (Galium aparine [13]) | SET VI rating (Setaria viridis [14]) | CHE AL rating (Chenopodium album [15]) | VER PE rating (Veronica persica [16]) | HEL AN rating (Helianthus annuus [17]) | ALO MY rating (Alopecurus myosuroides [18]) | AMA RE rating (Amaranthus retroflexus [19]) | TRZ AW rating (Triticum aestivum [20]) | also measured
1 | O=C(Nc1ccc(F)cc1)c1nsc(-c2cccc(C(F)(F)F)c2)n1 [Example 63] | 0 | 4 (30-44%) | 2 (6-15%) | 0 | 0 | 0 | 0 | 0 | 0 | 3 (16-29%) | 0 | 2 (6-15%) | 0 | 3 (16-29%) | 0 | 0 | 0 | 0 | 0 | 0 | HOR VW rating (Hordeum vulgare [21]): 1 (1-5%); ZEA MX rating (Zea mays [22]): 0; IPO HE rating (Ipomoea hederacea [23]): 0; ABU TH rating (Abutilon theophrasti [24]): 1 (1-5%)
2 | O=C(Nc1ccccc1)c1nsc(-c2cccc(C(F)(F)F)c2)n1 [Example 64] | 0 | 0 | 2 (6-15%) | 0 | 0 | 0 | 0 | 0 | 0 | 3 (16-29%) | 0 | 2 (6-15%) | 0 | 4 (30-44%) | 0 | 0 | 0 | 2 (6-15%) | 0 | 2 (6-15%) | HOR VW rating (Hordeum vulgare [21]): 1 (1-5%); ZEA MX rating (Zea mays [22]): 1 (1-5%); IPO HE rating (Ipomoea hederacea [23]): 0; ABU TH rating (Abutilon theophrasti [24]): 1 (1-5%)
3 | O=C(Nc1cccc(F)c1)c1nsc(-c2cccc(C(F)(F)F)c2)n1 [Example 65] | 0 | 4 (30-44%) | 0 | 0 | 1 (1-5%) | 0 | 0 | 0 | 0 | 3 (16-29%) | 3 (16-29%) | 2 (6-15%) | 0 | 0 | 0 | 0 | 0 | 1 (1-5%) | 0 | 3 (16-29%) | HOR VW rating (Hordeum vulgare [21]): 1 (1-5%); ZEA MX rating (Zea mays [22]): 0; IPO HE rating (Ipomoea hederacea [23]): 1 (1-5%); ABU TH rating (Abutilon theophrasti [24]): 0
